# Source: US8486962B2, “Antifungal agents” (F2G Ltd., priority 2005, dated 2013)
# How the values were obtained:
# Aspergillus flavus = test: MIC, YAG medium, Aspergillus flavus; type: cell-based; details: Aspergillus flavus; YAG medium; read-out: MIC A Flavus 01
# Outline: (§1)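 Doubling dilutions (50-0.05 mg/L) were tested against Candida in RPMI with 2% glucose and 0.135M MOPS, pH7.0, at 1-2×10^3 cfu/ml for 24-48 hrs, 35° C; MIC is >80% inhibition at OD485. Aspergillus in YAG medium at 1-2×10^4 cfu/ml for 24 hrs was scored at >70% inhibition; low MICs were retested over 0.5-0.0005 mg/L.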
# [1] = test system: Aspergillus fumigatus AF293; test: MIC, YAG medium, Aspergillus fumigatus AF293; type: cell-based; details: Aspergillus fumigatus, AF293; YAG medium; read-out: MIC A Fum. 293
# Outline: as §1
# Aspergillus niger = test: MIC, YAG medium, Aspergillus niger; type: cell-based; details: Aspergillus niger; YAG medium; read-out: MIC A Niger 1
# Outline: as §1
# Aspergillus terreus = test: MIC, YAG medium, Aspergillus terreus; type: cell-based; details: Aspergillus terreus; YAG medium; read-out: MIC A Terreus 4
# Outline: as §1
# [2] = test system: Aspergillus fumigatus AF210; test: MIC, YAG medium, Aspergillus fumigatus AF210; type: cell-based; details: Aspergillus fumigatus, AF210; YAG medium; read-out: MIC A Fum. 210
# Outline: as §1
# A Terreus 49 = test: MIC, YAG medium, A Terreus 49; type: cell-based, Aspergillus terreus; details: Aspergillus terreus; YAG medium; read-out: MIC A Terreus 49
# Protocol: Measurement of Minimum Inhibitory Concentrations (MICs)
# Between 1 and 5 mgs of compound were accurately weighed out into a sterile Eppendorf tube. The compound was dissolved in DMSO to give a solution containing 5 mg/ml. Tubes were stored at −20° C. until required.
# On the day of testing thawed solutions were vortex mixed to ensure homogeneity. 30 μl of solution was removed and added to 570 μl of sterile water in a separate sterile Eppendorf. The thoroughly mixed solution was used to prepare a series of doubling dilutions in water, in a deep well plate. Eleven replicate plates were prepared using a Minitrak by aspirating 20 μl from each well into eleven clear polystyrene 96 well plates.
# Spores of Aspergillus spp (Aspergillus fumigatus, Aspergillus terreus, Aspergillus niger and Aspergillus flavus) were harvested from cultures grown on Sabarauds agar for 5 days, and resuspended in PBS/Tween 80 to approx 1×10^7 cfu/ml Other filamentous fungi (Fusarium solani, Scedosporium spp., Trichophyton spp., Absidia corymbifera), were grown on Sabarauds agar for 2-10 days and spores/hyphae resuspended in PBS/Tween to give approx 1×10^7 cfU/ml. Candida species (Candida albicans, Candida glabrata, Candida krusei, Candida parapsilosis and Candida tropicalis) were grown on Sabarauds agar, cells were harvested from the agar using a sterile loop and resuspended in PBS/Tween 80 to approx 1×10^6 cfu/ml. Each organism suspension was diluted in RPMI medium, containing 2% glucose and 0.135M MOPS buffer (pH7.0) to 2×10^4 cfu/ml for Aspergillus spp and other filamentous fungi and 2×10^3 cfu/ml for yeast. 80 μl of an organism suspension was added to each well of the plate containing drug dilutions.
# This produced MIC plates with a drug range 50-0.05 mg/L and organism inocula of 1-2×10^4 cfu/ml for Aspergillus spp and other filamentous fungi and 1-2×10^3 cfu/ml for yeasts. All plates were incubated for 24-48 hrs at 35° C. Growth was assessed by monitoring the optical density at 485 nm for each well. The MIC of a compound is the lowest drug concentration that inhibits growth of an organism by >80% compared with a drug free control. MICs are recorded as mg/L. Other growth media can be used for susceptibility testing, and the activity of the described compounds can also be assessed in a medium comprising, 1% glucose, 1% ammonium chloride and 0.5% yeast extract (YAG medium). To perform MIC tests in this medium, dilutions of compounds are prepared in microtitre plates as described above. Fungal strains to be tested are grown and harvested in an identical manner to that described above, each organism suspension is then diluted in YAG medium to 2×10^4 cfu/ml for Aspergillus spp and other filamentous fungi and 2×10^3 cfu/ml for yeast. 80 μl of an organism suspension was added to each well of the plate containing drug dilutions. This produced MIC plates with a drug range 50-0.05 mg/L and organism inocula of 1-2×10^4 cfu/ml for Aspergillus spp and other filamentous fungi and 1-2×10^3 cfu/ml for yeasts. All plates were incubated for 24 hrs at 35° C. Growth was assessed by monitoring the optical density at 485 nm for each well. The MIC of a compound is the lowest drug concentration that inhibits growth of an organism by >70% compared with a drug free control. MICs are recorded as mg/L. In cases where the MIC of an organism is […]0.05 mg/L the MIC is repeated using a concentration range of 0.5-0.0005 mg/L. MIC tests in YAG medium have more clear-cut endpoints and have slightly lower MICS than those performed in RPMI medium.
# The following organisms were tested: Aspergillus fumigatus AF293 and Aspergillus fumigatus AF210, Aspergillus niger, Aspergillus terreus, Aspergillus favus, Candida albicans, Candida krusei, Candida tropicalis, Candida glabrata, Candida parapsilosis, Trichophyton rubrum, Trichophyton mentagrophytes, Scedosporium prolificans, Scedosporium apiospermum, Absidia corymbifera, Fusarium solani.
SMILES,MIC (Aspergillus flavus) [µg/mL],MIC [1] [µg/mL],MIC (Aspergillus niger) [µg/mL],MIC (Aspergillus terreus) [µg/mL],MIC [2] [µg/mL],MIC (A Terreus 49) [µg/mL]
"COc1ccc(NC(=O)C(=O)c2c(-c3ccc(F)cc3)cc3ccccn23)cc1 [Example 155, 2-[2-(4-Fluoro-phenyl)-indolizin-3-yl]-N-(4-methoxy-phenyl)-2-oxo-acetamide]",0.03,0.5,0.12,0.031,0.12,0.008
"Cc1ccc(NC(=O)C(=O)c2c(-c3ccc(F)cc3)cc3ccccn23)cc1 [Example 156, 2-[2-(4-Fluoro-phenyl)-indolizin-3-yl]-2-oxo-N-p-tolyl-acetamide]",0.015,0.25,0.031,0.031,0.25,0.015
"Cc1ccc(NC(=O)C(=O)c2c(-c3cccs3)cc3ccccn23)cc1 [Example 165, 2-Oxo-2-(2-thiophen-2-yl-indolizin-3-yl)-N-p-tolyl-acetamide]",0.062,0.8,0.25,0.06,1.6,0.062
"COc1ccc(NC(=O)C(=O)c2c(-c3cccs3)cc3ccccn23)c(OC)c1 [Example 166, N-(2,4-Dimethoxy-phenyl)-2-oxo-2-(2-thiophen-2-yl-indolizin-3-yl)-acetamide]",0.12,1.6,0.25,0.12,3.1,0.062
"COc1ccc(NC(=O)C(=O)c2c(-c3cccs3)cc3ccccn23)cn1 [Example 167, N-(6-Methoxy-pyridin-3-yl)-2-oxo-2-(2-thiophen-2-yl-indolizin-3-yl)-acetamide]",0.062,1.6,0.5,0.25,1.6,0.062
"Cc1ccc(NC(=O)C(=O)c2c(-c3cccnc3)cc3ccccn23)cc1 [Example 173, 2-Oxo-2-(2-pyridin-3-yl-indolizin-3-yl)-N-p-tolyl-acetamide]",0.12,0.5,0.5,0.12,0.4,0.12
"COc1ccc2cc(-c3ccccc3)c(C(=O)C(=O)Nc3ccc(C)cc3)n2c1 [Example 196, 2-(6-Methoxy-2-phenyl-indolizin-3-yl)-2-oxo-N-p-tolyl-acetamide]",0.12,0.8,0.5,0.12,0.8,0.062
"O=C(Nc1ccc(F)cc1)C(=O)c1c(-c2ccccc2)cc2ccccn12 [Example 200, N-(4-Fluoro-phenyl)-2-oxo-2-(2-phenyl-indolizin-3-yl)-acetamide]",0.062,0.25,0.031,0.015,0.25,0.015
"O=C(Nc1ccccc1F)C(=O)c1c(-c2ccccc2)cc2ccccn12 [Example 201, N-(2-Fluoro-phenyl)-2-oxo-2-(2-phenyl-indolizin-3-yl)-acetamide]",0.12,0.5,0.015,0.015,0.25,0.015
"Cc1ccccc1NC(=O)C(=O)c1c(-c2ccccc2)cc2ccccn12 [Example 202, 2-Oxo-2-(2-phenyl-indolizin-3-yl)-N-o-tolyl-acetamide]",0.062,0.5,0.031,0.008,0.25,0.015
"CN(C)c1ccc(NC(=O)C(=O)c2c(-c3ccccc3)cc3ccccn23)cc1 [Example 203, N-(4-Dimethylamino-phenyl)-2-oxo-2-(2-phenyl-indolizin-3-yl)-acetamide]",0.008,0.06,0.031,0.015,0.062,0.008
"O=C(Nc1ccc(Br)cc1)C(=O)c1c(-c2ccccc2)cc2ccccn12 [Example 204, N-(4-Bromo-phenyl)-2-oxo-2-(2-phenyl-indolizin-3-yl)-acetamide]",0.031,0.25,0.031,0.015,0.25,0.015
"CC(=O)c1ccc(NC(=O)C(=O)c2c(-c3ccccc3)cc3ccccn23)cc1 [Example 205, N-(4-Acetyl-phenyl)-2-oxo-2-(2-phenyl-indolizin-3-yl)-acetamide]",0.062,0.5,0.062,0.031,0.5,0.062
"Cc1cccc(NC(=O)C(=O)c2c(-c3ccccc3)cc3ccccn23)c1 [Example 206, 2-Oxo-2-(2-phenyl-indolizin-3-yl)-N-m-tolyl-acetamide]",0.008,0.062,0.015,0.004,0.062,0.008
"O=C(Nc1cc(Cl)cc(Cl)c1)C(=O)c1c(-c2ccccc2)cc2ccccn12 [Example 220, N-(3,5-Dichloro-phenyl)-2-oxo-2-(2-phenyl-indolizin-3-yl)-acetamide]",0.015,0.12,0.062,0.031,0.12,0.008
"CC(C)(C#N)c1ccc(NC(=O)C(=O)c2c(-c3ccccc3)cc3ccccn23)cc1 [Example 221, N-[4-(Cyano-dimethyl-methyl)-phenyl]-2-oxo-2-(2-phenyl-indolizin-3-yl)-acetamide]",0.015,0.062,0.015,0.015,0.03,0.008
"CC(C)(C#N)c1cccc(NC(=O)C(=O)c2c(-c3ccccc3)cc3ccccn23)c1 [Example 228, N-[3-(Cyano-dimethyl-methyl)-phenyl]-2-oxo-2-(2-phenyl-indolizin-3-yl)-acetamide]",0.004,0.031,0.015,0.004,0.031,0.002
"CN(C)c1ccc(NC(=O)C(=O)c2c(-c3ccccc3)cc3ccccn23)cn1 [Example 229, N-(6-Dimethylamino-pyridin-3-yl)-2-oxo-2-(2-phenyl-indolizin-3-yl)-acetamide]",0.031,0.5,0.12,0.12,0.5,0.062
"COc1ccc(NC(=O)C(=O)c2c(-c3ccccc3C)cc3ccccn23)cc1 [Example 232, N-(4-Methoxy-phenyl)-2-oxo-2-(2-o-tolyl-indolizin-3-yl)-acetamide]",0.015,0.062,0.008,0.031,0.062,0.015
"COc1ccc(NC(=O)C(=O)c2c(-c3cccc(C)c3)cc3ccccn23)cc1 [Example 233, N-(4-Methoxy-phenyl)-2-oxo-2-(2-m-tolyl-indolizin-3-yl)-acetamide]",0.004,0.25,0.06,0.008,0.25,0.004
